The values that follow come from patent US6180083A, “Tropane derivatives useable in particular for in vivo detection of dopamine transporters” (CIS bio International, priority 1996, dated 2001).

Data set [1] deals with serotonin transporter (Macaca fascicularis, UniProt A7KAX8). The following applies: read-out: Affinity: Ki (nM) Serotonin 5-HT; [^3 H]citalopram; document 10; cited from earlier work.
Data set [2] has as its target dopamine transporter. The following applies: [^3 H]Win35428; document 10; read-out: Affinity: Ki (nM) Dopamine (DA); cited from earlier work.
Data set [3] addresses dopamine transporter. Nature of the data set: competition with [^3 H]Win35428 (document 10). The class given is binding. The following applies: document 10 data. The text has this: (§1) Med., 1996, 37, pages 1197-1202 for tests of the same type conducted with β-CIT and iodoaltropane described in WO-A-95/11901.
Data set [4] deals with serotonin transporters. The settings on record: document 11, page 320; cited from earlier work.
The target of data set [5] is T1, dopamine transporters (Rattus norvegicus, UniProt P23977). The data set can be described thus: affinity of IPT for dopamine transporters (document 11). The format is binding. The settings on record: from document 11 values. The text has this:
Therefore a specificity Kd(5-HT)/Kd(DA) of approximately 5 is obtained.
By way of comparison, the affinity of compound IPT for dopamine transporters described in document 11 corresponds to: […]

For data set [6], the target named is T1, dopamine transporters. The following applies: document 11; cited from earlier work.
Data set [7] concerns the target dopamine transporter. The settings on record: Bonnet and Constantin 1986; cited from earlier work.
Data set [8] can be described thus: biodistribution study in the rat, time course (cerebellum, striatum, frontal cortex). The class given is in vivo, rat (male Wistar). The following applies: for tissue uptake at 0.5 h / tissue uptake at 1 h / tissue uptake at 2 h / tissue uptake at 4 h: rat, iv, 8e-06 mg/kg; for tissue uptake at 0.5 h: 0.5 h post-injection; for tissue uptake at 1 h: 1 h post-injection; for tissue uptake at 2 h: 2 h post-injection; for tissue uptake at 4 h: 4 h post-injection. The procedure: (§2) For this purpose 3 batches of male Wistar rats are used using 6 rats per batch. Batch number 1 is first given an intravenous injection of GBR 12909 (specific inhibitor of the dopamine transporter produced by RBI Bioblock) at a dose of 5 mg/kg, and 30 minutes later an injection of the compound of example 1 is given by intravenous route, at a dose of 8.10^-6 mg/kg.
(§3) Batch number 3, or the reference batch, only receives an intravenous injection of the compound of example 1.
(§4) 2 hours later, the animals are sacrificed and the doses of radioactivity in the cerebellum, striatum and frontal cortex tissues are determined.
(§5) The results obtained are given in FIG. 2 and are expressed as a % of the dose injected per gram of tissue.
In this example, a biodistribution study in the rat is also conducted for the compound of example 1 following the same operating mode as in example 14, but sacrificing the animals at 1/2 hour, 1 hour or 4 hours after injection.
In this table, the results obtained in example 14 are also given.

For data set [9], the system named is dopamine transporter system. The data set can be described thus: kinetics study in vivo on the brain distribution in primates (SPECT, […]). On the set-up: species or system primates (Cynomologus female macaque). The settings on record: words. As to the method: In this example, a kinetics study in vivo is made on the brain distribution of the compound of example 1 in primates (Cynomologus female macaque, 2 kg, anaesthetized with ketamine, with data acquisition made every 12 minutes on […]).

In data set [10] the target is T1, dopamine transporters. Nature of the data set: in vitro affinity of [^125 I]PE21 for dopamine transporters. The format is binding. The procedure: The affinity of compound [^125 I)PE21 for dopamine transporters was also determined in vitro, and the following value was obtained: […]
Data set [11] deals with T2, noradrenaline transporter (Rattus norvegicus, UniProt Q63380).
T2 construct: in vitro studies are conducted on brain membrane preparations; from tissue; host or cells: brain membrane preparations
Nature of the data set: in vitro competition with [^3 H]-nisoxetine on brain membrane preparations. The format is binding. The procedure:
(§6) In this example, in vitro studies are conducted on brain membrane preparations.
(§7) These studies are competition studies between [^3 H]-GBR 12935 (dopamine transporter), [^3 H]-paroxetine (serotonin transporter), [^3 H]-nisoxetine (noradrenaline transporter) and the iodinated derivative of example 1 (PE21).
(§8) The inhibition constants Ki (nM) obtained with the compound of the invention PE21 in competition with the different ligands are given in table 4.
as §1

For data set [12], the target named is T3, serotonin transporter (Rattus norvegicus, UniProt P31652).
T3 construct: in vitro studies are conducted on brain membrane preparations; from tissue; host or cells: brain membrane preparations
Nature of the data set: biochemical. The class given is binding. As to the method:
as §6, §1

Data set [13] concerns serotonin transporter. Nature of the data set: in vivo brain biodistribution in the rat with preinjection of paroxetine (specific inhibitor of the serotonin transporter). More on the design: species or system rat (male Wistar). The following applies: for specificity for the dopamine transporter compared with the serotonin transporter in vivo: rat brain. The procedure:
(§9) In this example, in vivo tests in the rat are used to study the affinity and specificity of the compound of example 1, hereinafter called PE21, for the dopamine transporter.
Batch number 2 first receives an injection of paroxetine (specific inhibitor of the serotonin transporter made by Beecham laboratories) at a dose of 5 mg/kg, and 30 minutes later an injection of the compound of example 1 is given under the same conditions as for batch number 1.
as §3, §4, §5
(§10) In this figure, the columns in white relate to batch number 3 (reference), the shaded columns relate to batch number 1 which received GBR 12909 and the dotted columns relate to batch number 2 which received paroxetine.
(§11) In this example, the same operating mode as in example 14 is followed to conduct the same in vivo brain biodistribution study in the rat, but using the compound of the prior art β-CIT (3b-4-iodo[^125 I]phenyl)-tropan-2β-carboxylic acid methyl ester) instead of the compound of example 1.

Data set [14] relates to dopaminergic cells. Nature of the data set: rat model of Parkinson's disease (unilateral 6-OHDA lesion of the nigrostriatal pathway), ex vivo autoradiography. The class given is in vivo, rat (Wistar). The settings on record: 2 hours after 3.7 MBq i.v. As to the method: In this example, the compound of example 1 PE21 was tested in the rat using a model of Parkinson's disease obtained with a unilateral lesion of the nigrostriatal pathway. For this purpose Wistar rats were unilaterally perfused in the substantia nigra with 8 μg of 6-OHDA(6-hydroxy dopamine).
Three weeks later, they were given an intravenous 3.7 MBq injection of [^125 I]PE21.
Two hours afterwards, the rats were sacrificed and their brains collected. The latter were frozen and coronal sections 20 μm thick were taken which were exposed on β-max hyperfilm for six weeks.
The striatum/frontal cortex ratios were calculated after analysis of the films. On the lesion side, an average ratio of 0.86±0.10 was observed, while this ratio was 7.20±0.91 on the intact side.

In data set [15] the test system is dopamine transporter. Nature of the data set: in vivo brain biodistribution in the rat with preinjection of GBR 12909 (specific inhibitor of the dopamine transporter). More on the design: species or system rat (male Wistar). The settings on record: for fixation in the striatum prevented/inhibited by preinjection of GBR 12909: GBR 12909 5 mg/kg i.v. 30 min before, 2 hours after injection. As to the method:
as §9, §2, §3, §4, §5, §10, §11

The subject of data set [16] is dopamine transporter. The data set can be described thus: in vitro competition with [^3 H]-GBR 12935 on brain membrane preparations. The following applies: for Ki: read-out: Affinity: Ki (nM) Dopamine (DA); for Selectivity 5-HT/DA, Ki(5-HT):Ki(DA): [^3 H]paroxetine Ki over [^3 H]GBR Ki. The format is binding. As to the method:
as §6, §7, §8, §1

Data set [17] deals with dopamine transporter system. The following applies: prior art compound; source not stated; cited from earlier work.
The mark [18] stands for this setting: cerebellum, read-out: Cerebellum.
Where [19] appears, read: frontal cortex, read-out: Frontal cortex (% injected dose/g tissue).
Setting [20] is: striatum, read-out: Striatum (% injected dose/g tissue).

Read-outs that look alike come from different tables or passages of the source.

T1 sequence (P23977 whole entry): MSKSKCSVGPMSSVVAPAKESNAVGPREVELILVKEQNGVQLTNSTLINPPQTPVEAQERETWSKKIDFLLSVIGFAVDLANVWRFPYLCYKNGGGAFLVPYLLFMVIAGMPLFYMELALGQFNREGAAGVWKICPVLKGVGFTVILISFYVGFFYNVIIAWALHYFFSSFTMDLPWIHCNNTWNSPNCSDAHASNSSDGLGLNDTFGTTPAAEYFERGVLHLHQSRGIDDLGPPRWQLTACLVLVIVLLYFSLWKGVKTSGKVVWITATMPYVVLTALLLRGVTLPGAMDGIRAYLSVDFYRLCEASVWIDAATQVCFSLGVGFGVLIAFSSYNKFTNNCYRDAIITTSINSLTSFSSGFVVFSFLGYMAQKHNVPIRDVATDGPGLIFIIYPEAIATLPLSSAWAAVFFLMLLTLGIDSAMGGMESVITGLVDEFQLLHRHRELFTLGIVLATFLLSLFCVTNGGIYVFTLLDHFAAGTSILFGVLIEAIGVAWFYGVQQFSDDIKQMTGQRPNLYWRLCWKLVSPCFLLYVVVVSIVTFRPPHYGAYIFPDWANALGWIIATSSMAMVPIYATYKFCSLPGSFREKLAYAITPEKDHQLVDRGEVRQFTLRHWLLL
serotonin transporter (Macaca fascicularis, UniProt A7KAX8), sequence (A7KAX8 1-630): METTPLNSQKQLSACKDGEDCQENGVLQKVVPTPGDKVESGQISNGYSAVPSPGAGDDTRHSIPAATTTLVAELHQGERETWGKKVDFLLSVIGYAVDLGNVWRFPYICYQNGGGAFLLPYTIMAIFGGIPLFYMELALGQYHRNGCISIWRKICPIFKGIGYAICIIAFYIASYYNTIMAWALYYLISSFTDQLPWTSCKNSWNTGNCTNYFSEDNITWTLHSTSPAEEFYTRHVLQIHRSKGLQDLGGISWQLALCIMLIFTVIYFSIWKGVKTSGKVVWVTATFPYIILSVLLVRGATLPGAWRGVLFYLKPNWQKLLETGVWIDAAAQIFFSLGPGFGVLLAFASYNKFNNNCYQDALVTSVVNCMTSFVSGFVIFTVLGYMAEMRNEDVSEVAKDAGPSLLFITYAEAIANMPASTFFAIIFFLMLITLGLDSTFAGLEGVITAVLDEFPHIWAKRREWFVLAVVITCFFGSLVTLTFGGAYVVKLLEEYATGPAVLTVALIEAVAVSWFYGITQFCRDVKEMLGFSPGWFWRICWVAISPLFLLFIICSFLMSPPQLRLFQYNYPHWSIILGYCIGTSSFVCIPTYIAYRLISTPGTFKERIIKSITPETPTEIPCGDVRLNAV
T2 sequence (Q63380 1-617): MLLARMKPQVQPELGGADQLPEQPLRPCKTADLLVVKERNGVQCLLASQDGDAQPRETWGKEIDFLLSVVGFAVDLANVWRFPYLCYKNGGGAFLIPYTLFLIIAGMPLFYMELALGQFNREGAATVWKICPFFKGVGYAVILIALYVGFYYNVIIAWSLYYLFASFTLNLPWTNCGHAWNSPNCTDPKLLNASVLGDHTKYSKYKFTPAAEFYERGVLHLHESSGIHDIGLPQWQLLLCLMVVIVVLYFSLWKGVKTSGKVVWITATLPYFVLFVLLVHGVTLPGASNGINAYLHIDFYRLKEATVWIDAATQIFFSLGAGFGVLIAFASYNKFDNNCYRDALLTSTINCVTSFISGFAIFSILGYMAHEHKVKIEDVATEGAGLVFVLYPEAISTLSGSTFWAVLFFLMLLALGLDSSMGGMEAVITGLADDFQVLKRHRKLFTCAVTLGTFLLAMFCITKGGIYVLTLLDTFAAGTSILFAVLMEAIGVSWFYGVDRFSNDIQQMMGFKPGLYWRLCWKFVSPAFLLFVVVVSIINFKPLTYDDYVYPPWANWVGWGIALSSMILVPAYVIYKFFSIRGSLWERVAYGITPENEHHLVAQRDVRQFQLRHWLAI
T3 sequence (P31652 whole entry): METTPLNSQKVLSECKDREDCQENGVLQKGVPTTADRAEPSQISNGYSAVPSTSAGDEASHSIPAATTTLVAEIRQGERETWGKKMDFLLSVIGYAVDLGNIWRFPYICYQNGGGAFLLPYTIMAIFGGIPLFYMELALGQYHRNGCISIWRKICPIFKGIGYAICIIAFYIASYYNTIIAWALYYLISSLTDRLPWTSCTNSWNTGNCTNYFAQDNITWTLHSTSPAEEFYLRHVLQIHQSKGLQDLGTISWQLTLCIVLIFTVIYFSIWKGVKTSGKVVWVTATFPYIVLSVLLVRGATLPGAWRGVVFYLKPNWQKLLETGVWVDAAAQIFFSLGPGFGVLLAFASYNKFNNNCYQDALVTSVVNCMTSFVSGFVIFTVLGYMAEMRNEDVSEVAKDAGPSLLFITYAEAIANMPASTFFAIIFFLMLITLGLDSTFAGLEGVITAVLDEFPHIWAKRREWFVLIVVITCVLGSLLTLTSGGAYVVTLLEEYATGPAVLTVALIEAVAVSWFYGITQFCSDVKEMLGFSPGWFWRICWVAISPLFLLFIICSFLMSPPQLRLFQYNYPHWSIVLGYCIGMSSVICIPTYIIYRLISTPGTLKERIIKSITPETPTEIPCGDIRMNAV

Usually Ki stands for a dissociation constant, usually derived from enzyme kinetics or from competition with a known ligand. `COC(=O)[C@H]1[C@@H](c2ccc(F)cc2)C[C@@H]2CC[C@H]1N2C/C=C/I` [Iodoaltropane]: the values for the inhibitory constant (Ki) in data set [1] and in [2] were 182 ± 41.8 nM and 6.62 ± 0.78 nM, respectively. Also, the “Ki ratio DA (iodoaltropane)/DA (β-CIT)” value in [3] was 6.

The Kd is the concentration at which binding is half-saturated. `COC(=O)[C@H]1[C@@H](c2ccc(Cl)cc2)C[C@@H]2CC[C@H]1N2CC=CI` [IPT]: the Kd was 1.2 ± 0.02 nM in data set [4] and 0.25 ± 0.02 nM in data set [6]. For the same compound, the “specificity Kd(5-HT)/Kd(DA)” value in data set [5] is reported as “approximately 5”.

Turning to `C(=Cc1ccccc1)CN1CCN(CCOC(c2ccccc2)c2ccccc2)CC1` [GBR 12783], the Kd in data set [7] is 1.6 nM.

Regarding `COC(=O)[C@H]1[C@@H](c2ccc(C)cc2)C[C@@H]2CC[C@H]1N2C/C=C/[125I]` [Example 1, 2β-carbomethoxy-3β-(p-methylphenyl)-8-(3-[^125 I]iodoprop-2E-enyl)nortropane], in data set [8] (setting [18]), the tissue uptake at 0.5 h amounted to 0.1 %ID/g, the tissue uptake at 1 h turned out to be 0.055 %ID/g, the tissue uptake at 2 h was 0.038 %ID/g and the tissue uptake at 4 h came out at 0.021 %ID/g. Moreover, in [8] (setting [19]), the tissue uptake at 0.5 h came out at 0.124 %ID/g, the tissue uptake at 1 h turned out to be 0.07 %ID/g, the tissue uptake at 2 h turned out to be 0.039 %ID/g and the tissue uptake at 4 h turned out to be 0.018 %ID/g. Further, in [8] (setting [20]), the tissue uptake at 0.5 h amounted to 1.06 %ID/g, the tissue uptake at 1 h came to 0.537 %ID/g, the tissue uptake at 2 h was determined as 0.272 %ID/g and the tissue uptake at 4 h was 0.074 %ID/g. For the same compound, the “accumulation in the striatum” value in data set [8] (words) is given as “accumulates in preferential manner in the striatum”. Moreover, in data set [9], the “binding at the central grey nuclei” value is “binds itself in specific manner at the central grey nuclei”. In addition, the “affinity relative to IPT” value in [10] (Kd of PE21 vs Kd of IPT (document 11)) is 2.5 times. This compound also registered a Kd in data set [10] ([^125 I]PE21) of 0.09 ± 0.01 nM. In [11] ([^3 H]nisoxetine, read-out: Affinity: Ki (nM) Nor-adrenaline), the Ki was above 100 nM. In [12], the affinity corresponds to a Ki of 500 ± 80 nM. For the same compound, the “specificity for the dopamine transporter compared with the serotonin transporter in vivo” value in data set [13] (words) was “very strong specificity for the dopamine transporter compared with the serotonin transporter”. In addition, in data set [14] (6-OHDA lesion side), the “striatum/frontal cortex ratio, lesion side” value is on record as 0.86±0.10. Besides, the “striatum/frontal cortex ratio, intact side” value in data set [14] (intact side) amounted to 7.20±0.91. In data set [15] (2 hours), the “non-specific fixation in the striatum determined after saturation with GBR 12909” value is given as “approximately 25%”. Further, the “specificity for the dopamine transporter in the striatum at early times” value in [15] (2 hours, words) is listed as “very strong specificity for the dopamine transporter in the striatum”. The “fixation in the striatum prevented/inhibited by preinjection of GBR 12909” value in data set [15] worked out at 74%. In data set [16] (Ki(5-HT)/Ki(DA) of PE21 vs Kd(5-HT)/Kd(DA) of IPT), the “specificity relative to IPT” value was found to be 5 times. In data set [16] ([^3 H]GBR), the “Ki ratio DA (PE21)/DA (β-CIT)” value is given as 0.63 and the Ki came out at 17 ± 7 nM. Also, the “Selectivity 5-HT/DA, Ki(5-HT):Ki(DA)” value in data set [16] was 29.4. The “better affinity for dopamine transporter relative to iodoaltropane” value in data set [16] (from Ki ratios to β-CIT) turned out to be 10 times.

On to `COC(=O)[C@H]1[C@@H](c2ccc(I)cc2)C[C@@H]2CC[C@H]1N2C` [β-CIT, 2β-carbomethoxy-3β-(4' iodophenyl)-tropane, reference compound], for which the Ki was 2.53 ± 0.02 nM in data set [1]; 80 ± 28 nM in data set [11]; 30 ± 2 nM in [12]; 1.08 ± 0.6 nM in data set [2]; 27 ± 2 nM in data set [16] ([^3 H]GBR). Further, the “fixation in the frontal cortex compared with the compound of the invention” value in data set [13] (frontal cortex, rich in serotonin transporter sites, 2 hours, words) was “much higher than that of the compound of the invention”. The “inhibition of fixation in the frontal cortex through a preinjection of paroxetine” value in data set [13] (frontal cortex, paroxetine 5 mg/kg i.v. 30 min before, 2 hours) stood at 55%. The “specificity for the dopamine transporter compared with the serotonin transporter in vivo” value in data set [13] (words) was “binds to both these transporters”. In data set [17], the “time at which a specific image of the central grey nuclei starts to be produced” value is above 20 h. Also, in data set [15] (2 hours), the “non-specific fixation in the striatum determined after saturation with GBR 12909” value is reported as around 70%. The “fixation in the striatum prevented/inhibited by preinjection of GBR 12909” value in data set [15] came to 31%. Besides, the “Selectivity 5-HT/DA, Ki(5-HT):Ki(DA)” value in [16] is 1.11.
